BindingDB's records for patent US12415785 (Ctxt, 2025)

target: T1, Stimulator of interferon genes protein [1-379,R71H,G230A,H232R,R293Q] (Homo sapiens, UniProt Q86WV6, G230A/H232R/R293Q/R71H); assay: Surface Plasmon Resonance (SPR)
T1 construct: 1-379
Experimental: Briefly, approximately 20 nmol of recombinant STING protein in 1×TBS buffer (25 mM Tris-HCl, pH 7.5, 150 mM NaCl, 5 mM DTT) was mixed with of EZ-Link™ Sulfo-NHS-LC-LC-Biotin (Thermofisher Scientific, cat #21338) at a molar ratio of 1 to 0.6 and incubated on ice for 2 hours. To remove any unreacted biotin reagent, protein/biotin mixture was passed through a Superdex 75 (10/300 GL) column equilibrated with 10 mM HEPES, pH7.4, 150 mM NaCl, 5 mM DTT, 5%[v/v] glycerol. A protein peak containing biotinylated huSTING protein was collected and stored in aliquots at −80° C.Streptavidin was simultaneously immobilized in all four channels of a CM5 sensor chip docked in a Biacore instrument (either Biacore S200 or Biacore T200, GE Healthcare) as described previously (Zender 2013). Minimally biotinylated STING protein was captured onto a streptavidin coated chip surface at 8° C. in SPR binding buffer (50 mM HEPES, pH 7.4, 150 mM NaCl, 2%[v/v] DMSO) by gradually injecting in a single channel at a constant flow-rate of 2 μL/min until desired capture level was achieved, typically 3000 to 7000 RU (1 RU=1 pg/mm2).All binding experiments were performed at 8° C. in SPR binding buffer. To determine binding affinity, compound interaction with immobilized STING protein was analysed using dose-response experiments. Fresh 10 mM DMSO solutions of compound were diluted directly into SPR binding buffer typically to a concentration of 50 μM and then further diluted 2-fold or 3-fold aiming for either a 5- or 7-point concentration series range. Each ligand concentration series was injected at a constant flow rate of 60 μL/min with a 90 second association and a 180 second dissociation time.

T1 sequence (Q86WV6 whole entry R71H/G230A/H232R/R293Q, looked up): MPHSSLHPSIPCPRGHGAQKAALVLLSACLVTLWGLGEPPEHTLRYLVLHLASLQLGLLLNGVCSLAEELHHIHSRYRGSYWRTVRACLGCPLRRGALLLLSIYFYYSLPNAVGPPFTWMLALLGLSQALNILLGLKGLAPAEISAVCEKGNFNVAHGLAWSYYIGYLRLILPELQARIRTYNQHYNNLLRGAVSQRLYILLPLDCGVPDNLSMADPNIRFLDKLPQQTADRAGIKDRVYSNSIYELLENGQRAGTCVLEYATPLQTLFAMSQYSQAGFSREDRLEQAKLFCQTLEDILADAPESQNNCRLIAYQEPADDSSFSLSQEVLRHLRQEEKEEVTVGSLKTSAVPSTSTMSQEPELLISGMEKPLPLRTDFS

Point of comparison: `NC(=O)c1ccc2c(c1)nc(-c1c(Br)cccc1C(=O)O)n2CCn1c(-c2c(Br)cccc2C(=O)O)nc2cc(C(N)=O)ccc21` [US12415785, Example 29.1], Kd 0.936 µM. Against it:
- COc1c(C(N)=O)ccc2c1nc(-c1ccc(Cl)cc1-c1cn[nH]n1)n2CCn1c(-c2ccc(Cl)cc2-c2cn[nH]n2)nc2c(OC)c(C(N)=O)ccc21 [US12415785, Example 24] — 24-fold higher, 22 µM
- CCc1ccc(-c2nc3c(OC)c(C(N)=O)ccc3n2CCn2c(-c3ccc(CC)cc3C(=O)O)nc3c(OC)c(C(N)=O)ccc32)c(C(=O)O)c1 [US12415785, Example 33] — 83-fold higher, 78 µM
- COc1c(C(N)=O)ccc2c1nc(-c1ccc(Cl)cc1C(=O)O)n2CCn1c(-c2ccc(Cl)cc2C(=O)O)nc2c(OC)c(C(N)=O)ccc21 [US12415785, Example 1] — 18-fold higher, 16.6 µM
- COc1c(C(N)=O)ccc2c1nc(-c1c(F)cccc1-c1n[nH]c(=O)o1)n2CCn1c(-c2c(F)cccc2-c2n[nH]c(=O)o2)nc2c(OC)c(C(N)=O)ccc21 [US12415785, Example 49] — 30-fold lower, 0.031 µM
- COc1c(C(N)=O)ccc2c1nc(-c1c(F)cc(Cl)cc1C(=O)O)n2CCn1c(-c2c(F)cc(Cl)cc2C(=O)O)nc2c(OC)c(C(N)=O)ccc21 [US12415785, Example 11] — 12-fold lower, 0.078 µM
- COc1c(C(N)=O)ccc2c1nc(-c1cccc(Cl)c1-c1nn[nH]n1)n2CCn1c(-c2cccc(Cl)c2-c2nn[nH]n2)nc2c(OC)c(C(N)=O)ccc21 [US12415785, Example 40] — 68-fold higher, 64 µM
- NC(=O)c1ccc2c(c1)nc(-c1ccccc1C(=O)O)n2CCn1c(-c2ccccc2C(=O)O)nc2cc(C(N)=O)ccc21 [US12415785, Example 2] — 72-fold higher, 67 µM
- COc1ccc(-c2nc3c(OC)c(C(N)=O)ccc3n2CCn2c(-c3ccc(OC)cc3C(=O)O)nc3c(OC)c(C(N)=O)ccc32)c(C(=O)O)c1 [US12415785, Example 41] — 89-fold higher, 83 µM
- COc1c(C(N)=O)ccc2c1nc(-c1c(F)cc(Cl)cc1-c1n[nH]c(=O)o1)n2CCn1c(-c2c(F)cc(Cl)cc2-c2n[nH]c(=O)o2)nc2c(OC)c(C(N)=O)ccc21 [US12415785, Example 50] — 67-fold lower, 0.014 µM
- COc1c(C(N)=O)ccc2c1nc(-c1ccc(Cl)cc1-c1nn[nH]n1)n2CCn1c(-c2ccc(Cl)cc2-c2nn[nH]n2)nc2c(OC)c(C(N)=O)ccc21 [US12415785, Example 9] — 2.8-fold higher, 2.66 µM
- COc1c(C(N)=O)cc(F)c2c1nc(-c1ccc(Cl)cc1C(=O)O)n2CCn1c(-c2ccc(Cl)cc2C(=O)O)nc2c(OC)c(C(N)=O)cc(F)c21 [US12415785, Example 20] — 14-fold higher, 12.8 µM
- COc1c(C(N)=O)ccc2c1nc(-c1cc(F)c(F)cc1C(=O)O)n2CCn1c(-c2cc(F)c(F)cc2C(=O)O)nc2c(OC)c(C(N)=O)ccc21 [US12415785, Example 15] — 6.8-fold higher, 6.34 µM
- COc1c(C(N)=O)ccc2c1nc(-c1ccccc1-c1nn[nH]n1)n2CCn1c(-c2ccccc2-c2nn[nH]n2)nc2c(OC)c(C(N)=O)ccc21 [US12415785, Example 6] — 13-fold higher, 11.9 µM
- COc1c(C(N)=O)ccc2c1nc(-c1c(F)cccc1-c1nn[nH]n1)n2CCn1c(-c2c(F)cccc2-c2nn[nH]n2)nc2c(OC)c(C(N)=O)ccc21 [US12415785, Example 48] — 31-fold lower, 0.03 µM
- COc1c(C(N)=O)ccc2c1nc(-c1c(I)cccc1C(=O)O)n2CCn1c(-c2c(I)cccc2C(=O)O)nc2c(OC)c(C(N)=O)ccc21 [US12415785, Example 19.1] — 470-fold lower, 0.002 µM
- COc1c(C(N)=O)cc(F)c2c1nc(-c1c(F)cc(F)cc1C(=O)O)n2CCn1c(-c2c(F)cc(F)cc2C(=O)O)nc2c(OC)c(C(N)=O)cc(F)c21 [US12415785, Example 18] — 6.5-fold lower, 0.144 µM
- COc1c(C(N)=O)ccc2c1nc(-c1c(F)cc(Cl)cc1-c1nn[nH]n1)n2CCn1c(-c2c(F)cc(Cl)cc2-c2nn[nH]n2)nc2c(OC)c(C(N)=O)ccc21 [US12415785, Example 46] — 37-fold lower, 0.025 µM
- COC(=O)c1c(Br)cccc1-c1nc2c(OC)c(C(N)=O)ccc2n1CCn1c(-c2cccc(Br)c2C(=O)OC)nc2c(OC)c(C(N)=O)ccc21 [US12415785, Example 21] — within 1.5-fold, 1.09 µM
- COc1c(C(N)=O)ccc2c1nc(-c1c(Cl)cccc1-c1nn[nH]n1)n2CCn1c(-c2c(Cl)cccc2-c2nn[nH]n2)nc2c(OC)c(C(N)=O)ccc21 [US12415785, Example 23] — 470-fold lower, 0.002 µM
- NC(=O)c1ccc2c(c1)nc(-c1ccc(Cl)cc1C(=O)O)n2CCn1c(-c2ccc(Cl)cc2C(=O)O)nc2cc(C(N)=O)ccc21 [US12415785, Example 39] — 320-fold higher, 300 µM
- COc1c(C(N)=O)ccc2c1nc(-c1c(Cl)cccc1C(=O)O)n2CCn1c(-c2c(Cl)cccc2C(=O)O)nc2c(OC)c(C(N)=O)ccc21 [US12415785, Example 22] — 470-fold lower, 0.002 µM
- NC(=O)c1ccc2c(c1)nc(-c1ccccc1-c1nn[nH]n1)n2CCn1c(-c2ccccc2-c2nnn[nH]2)nc2cc(C(N)=O)ccc21 [US12415785, Example 5] — 21-fold higher, 19.3 µM
- COc1c(C(N)=O)ccc2c1nc(-c1cc(Cl)ccc1-c1nn[nH]n1)n2CCn1c(-c2cc(Cl)ccc2-c2nn[nH]n2)nc2c(OC)c(C(N)=O)ccc21 [US12415785, Example 42] — 16-fold higher, 14.8 µM
- COc1c(C(N)=O)ccc2c1nc(-c1ccc(C)cc1C(=O)O)n2CCn1c(-c2ccc(C)cc2C(=O)O)nc2c(OC)c(C(N)=O)ccc21 [US12415785, Example 25] — 21-fold higher, 19.3 µM
- COc1c(C(N)=O)ccc2c1nc(-c1c(F)cccc1C(=O)O)n2CCn1c(-c2c(F)cccc2C(=O)O)nc2c(OC)c(C(N)=O)ccc21 [US12415785, Example 10] — 5.1-fold lower, 0.183 µM
- COc1c(C(N)=O)ccc2c1nc(-c1ccc(Cl)cc1C(=O)O)n2C/C=C/Cn1c(-c2ccc(Cl)cc2C(=O)O)nc2c(OC)c(C(N)=O)ccc21 [US12415785, Example 34] — 28-fold higher, 26 µM
- COc1c(C(N)=O)ccc2c1nc(-c1ccc(Cl)cc1C(=O)O)n2CCCn1c(-c2ccc(Cl)cc2C(=O)O)nc2c(OC)c(C(N)=O)ccc21 [US12415785, Example 35] — 37-fold higher, 35 µM
- COc1c(C(N)=O)ccc2c1nc(-c1ccc(Cl)cc1-c1n[nH]c(=O)o1)n2CCn1c(-c2ccc(Cl)cc2-c2n[nH]c(=O)o2)nc2c(OC)c(C(N)=O)ccc21 [US12415785, Example 17] — 2.3-fold lower, 0.416 µM
- COc1c(C(N)=O)ccc2c1nc(-c1ncc(Cl)cc1C(=O)O)n2CCn1c(-c2ncc(Cl)cc2C(=O)O)nc2c(OC)c(C(N)=O)ccc21 [US12415785, Example 31] — 59-fold higher, 55 µM
- COc1c(C(N)=O)ccc2c1nc(-c1c(F)cc(F)cc1C(=O)O)n2CCn1c(-c2c(F)cc(F)cc2C(=O)O)nc2c(OC)c(C(N)=O)ccc21 [US12415785, Example 16] — 5.6-fold lower, 0.166 µM
- COc1c(C(N)=O)ccc2c1nc(-c1c(F)cc(F)cc1-c1n[nH]c(=O)o1)n2CCn1c(-c2c(F)cc(F)cc2-c2n[nH]c(=O)o2)nc2c(OC)c(C(N)=O)ccc21 [US12415785, Example 44] — 2.2-fold lower, 0.423 µM
- COc1c(C(N)=O)ccc2c1nc(-c1cnccc1C(=O)O)n2CCn1c(-c2cnccc2C(=O)O)nc2c(OC)c(C(N)=O)ccc21 [US12415785, Example 30] — 96-fold higher, 90 µM
- COc1c(C(N)=O)ccc2c1nc(-c1cc(C)ccc1C(=O)O)n2CCn1c(-c2cc(C)ccc2C(=O)O)nc2c(OC)c(C(N)=O)ccc21 [US12415785, Example 26] — 35-fold higher, 32.5 µM
- COc1c(C(N)=O)ccc2c1nc(-c1c(F)cc(F)cc1-c1nn[nH]n1)n2CCn1c(-c2c(F)cc(F)cc2-c2nn[nH]n2)nc2c(OC)c(C(N)=O)ccc21 [US12415785, Example 43] — 9.8-fold lower, 0.096 µM
